System: montane vole, Microtus montanus
Test: Uterine weight response in female montane voles after intraperitoneal injection
Format: in vivo
Settings: i.p. 5 mcg/day for three days; for Average Uterine Weight: sacrificed 24 hours after last injection, control 15.2 ± 2.4
Description: Female montane voles, Microtis montanus, received intra peritoneal injections of representative compounds belonging to Formulas I, II and III for three consecutive days and sacrificed twenty-four (24) hours after the last injection to examine uterine weight response. To assess the properties of each representative compound, pure ones made by chemical means (University of Utah Department of Chemistry, Salt Lake City, Utah) were prepared specifically for this test. All compounds were injected at a dose level of 5 mcg/day, dissolved in five percent (5%) propylene glycol for a total injection volume of 0.5 ml. Control animals received 0.5 ml of five percent (5%) propylene glycol only. All voles were 4-5 weeks old and weighed 25-29 g.

Compound | Average Uterine Weight [mg] | increase in uterine weight over control group [%]
CCOc1ccc(NC(C)=O)c(O)c1 [2-hydroxy-4-ethoxyacetanilide] | 22.2 ± 3.9 | –
COc1ccc2[nH]c(=O)oc2c1 [6-methoxy-2-benzoxazolinone] | 27.7 ± 5.6 | 82
COc1ccc2oc(=O)[nH]c2c1 [5-methoxy-2-benzoxazolinone] | 20.0 ± 4.7 | 32
COc1ccc(O)c(N)c1 [2-amino-4-methoxyphenol] | 22.2 ± 3.2 | –
COc1ccc(O)c(NC(C)=O)c1 [2-hydroxy-5-methoxyacetanilide] | 21.1 ± 4.4 | –
COc1ccc(N)c(O)c1 [2-amino-5-methoxyphenol] | 21.8 ± 3.5 | –
COc1ccc(NC(C)=O)c(O)c1 [2-hydroxy-4-methoxyacetanilide] | 23.1 ± 2.7 | –
